ChEMBL document CHEMBL1201862, “PubChem BioAssay data set” (2004)
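96-well plates; 48 h exposure; 5 concentrations. Endpoints by linear interpolation between flanking doses. Not reached: highest tested concentration assigned. The concentration for 50% growth inhibition is given as GI50.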 The source made the active and inactive calls. Cut-off read from the data, not from the text of the source: active = GI50 up to about 1.1 µM and inactive = higher.

What was measured:
Test in all cases: inhibition of tumour cell growth, NCI panel, 48 h
[1] = tested on: 786-0
[2] = tested on: A498
[3] = tested on: A549
[4] = tested on: ACHN
[5] = tested on: BT-549
[6] = tested on: CAKI-1
[7] = tested on: CCRF-CEM
[8] = tested on: COLO 205
[9] = tested on: DU-145
[10] = tested on: EKVX
[11] = tested on: HCC 2998
[12] = tested on: HCT-116
[13] = tested on: HCT-15
[14] = tested on: HL-60
[15] = tested on: HOP-62
[16] = tested on: HT-29
[17] = tested on: Hs-578T
[18] = tested on: IGROV-1
[19] = tested on: K562
[20] = tested on: KM12
[21] = tested on: LOX IMVI
[22] = tested on: M14
[23] = tested on: MCF7
[24] = tested on: MDA-MB-231
[25] = tested on: MDA-MB-435
[26] = tested on: MDA-N
[27] = tested on: MOLT-4
[28] = tested on: Malme-3M
[29] = tested on: NCI-H23
[30] = tested on: NCI-H460
[31] = tested on: NCI-H522
[32] = tested on: NCI/ADR-RES
[33] = tested on: OVCAR-3
[34] = tested on: OVCAR-4
[35] = tested on: OVCAR-5
[36] = tested on: OVCAR-8
[37] = tested on: PC-3
[38] = tested on: RPMI-8226
[39] = tested on: RXF 393
[40] = tested on: SF-268
[41] = tested on: SF-295
[42] = tested on: SF-539
[43] = tested on: SK-MEL-28
[44] = tested on: SK-MEL-2
[45] = tested on: SK-MEL-5
[46] = tested on: SK-OV-3
[47] = tested on: SN12C
[48] = tested on: SNB-19
[49] = tested on: SR
[50] = tested on: SW-620
[51] = tested on: T47D
[52] = tested on: TK-10
[53] = tested on: U-251
[54] = tested on: UACC-257
[55] = tested on: UACC-62
[56] = tested on: UO-31
[57] = tested on: HOP-92
[58] = tested on: NCI-H226
[59] = tested on: SNB-75

CC(=O)c1ccccc1NP(=O)(c1ccccc1)c1ccccc1
GI50 [1]: > 100 µM (inactive) | GI50 [2]: 31.4 µM (inactive) | GI50 [3]: 56.9 µM (inactive) | GI50 [4]: > 100 µM (inactive) | GI50 [5]: > 100 µM (inactive) | GI50 [6]: 30.8 µM (inactive) | GI50 [7]: 33.5 µM (inactive) | GI50 [8]: 13.2 µM (inactive) | GI50 [9]: > 100 µM (inactive) | GI50 [10]: 45.4 µM (inactive) | GI50 [11]: > 100 µM (inactive) | GI50 [12]: 53.2 µM (inactive) | GI50 [13]: 66.4 µM | GI50 [14]: 33.2 µM (inactive) | GI50 [15]: > 100 µM (inactive) | GI50 [16]: 47.1 µM (inactive) | GI50 [17]: 53.3 µM (inactive) | GI50 [18]: 46.5 µM (inactive) | GI50 [19]: 62.5 µM (inactive) | GI50 [20]: 50.7 µM (inactive) | GI50 [21]: 90.6 µM (inactive) | GI50 [22]: 33.9 µM (inactive) | GI50 [23]: 64.6 µM (inactive) | GI50 [24]: 32.5 µM (inactive) | GI50 [25]: 38.7 µM (inactive) | GI50 [26]: 36.9 µM (inactive) | GI50 [27]: 32.1 µM (inactive) | GI50 [28]: 34 µM (inactive) | GI50 [29]: 79.1 µM (inactive) | GI50 [30]: 43.6 µM (inactive) | GI50 [31]: 37.3 µM (inactive) | GI50 [32]: 14.1 µM (inactive) | GI50 [33]: 43.1 µM (inactive) | GI50 [34]: 27.5 µM (inactive) | GI50 [35]: > 100 µM (inactive) | GI50 [36]: > 100 µM (inactive) | GI50 [37]: > 100 µM (inactive) | GI50 [38]: 16.6 µM (inactive) | GI50 [39]: 43.2 µM (inactive) | GI50 [40]: 74.5 µM (inactive) | GI50 [41]: 74.6 µM (inactive) | GI50 [42]: 70.3 µM (inactive) | GI50 [43]: 67.9 µM (inactive) | GI50 [44]: 54.1 µM (inactive) | GI50 [45]: 47.3 µM (inactive) | GI50 [46]: 20.4 µM (inactive) | GI50 [47]: 69.5 µM (inactive) | GI50 [48]: > 100 µM (inactive) | GI50 [49]: 60 µM (inactive) | GI50 [50]: 97.7 µM (inactive) | GI50 [51]: 43.3 µM (inactive) | GI50 [52]: 40.8 µM (inactive) | GI50 [53]: 96.6 µM (inactive) | GI50 [54]: 68.9 µM (inactive) | GI50 [55]: 35.2 µM (inactive) | GI50 [56]: 45.3 µM (inactive)

O=C1NC(=O)C(C(CC(=O)c2ccc([N+](=O)[O-])cc2)c2ccccc2)C(=O)N1 (stereo not drawn)
GI50 [1]: > 100 µM (inactive) | GI50 [2]: > 100 µM (inactive) | GI50 [3]: 97.3 µM (inactive) | GI50 [4]: > 100 µM (inactive) | GI50 [5]: > 100 µM (inactive) | GI50 [7]: 35.2 µM (inactive) | GI50 [8]: > 100 µM (inactive) | GI50 [9]: > 100 µM (inactive) | GI50 [12]: 14.8 µM (inactive) | GI50 [13]: > 100 µM | GI50 [14]: > 100 µM (inactive) | GI50 [15]: > 100 µM (inactive) | GI50 [57]: > 100 µM (inactive) | GI50 [16]: 52.2 µM (inactive) | GI50 [17]: 10.9 µM (inactive) | GI50 [18]: > 100 µM (inactive) | GI50 [19]: 60.3 µM (inactive) | GI50 [20]: 14.8 µM (inactive) | GI50 [21]: 20 µM (inactive) | GI50 [22]: > 100 µM (inactive) | GI50 [23]: 13.5 µM (inactive) | GI50 [24]: > 100 µM (inactive) | GI50 [25]: 49.8 µM (inactive) | GI50 [26]: 27.2 µM (inactive) | GI50 [27]: 73.3 µM (inactive) | GI50 [28]: 0.0334 µM (active) | GI50 [58]: > 100 µM (inactive) | GI50 [29]: 20.7 µM (inactive) | GI50 [30]: > 100 µM (inactive) | GI50 [31]: 47.2 µM (inactive) | GI50 [32]: > 100 µM (inactive) | GI50 [33]: 36.7 µM (inactive) | GI50 [34]: > 100 µM (inactive) | GI50 [35]: > 100 µM (inactive) | GI50 [36]: > 100 µM (inactive) | GI50 [37]: 55.8 µM (inactive) | GI50 [38]: 31.3 µM (inactive) | GI50 [39]: 2.77 µM (inactive) | GI50 [40]: 19.9 µM (inactive) | GI50 [41]: 4.79 µM (inactive) | GI50 [42]: > 100 µM (inactive) | GI50 [43]: > 100 µM (inactive) | GI50 [44]: > 100 µM (inactive) | GI50 [45]: 41.6 µM (inactive) | GI50 [46]: > 100 µM (inactive) | GI50 [47]: > 100 µM (inactive) | GI50 [48]: 24.8 µM (inactive) | GI50 [59]: > 100 µM (inactive) | GI50 [49]: 40 µM (inactive) | GI50 [50]: 29.2 µM (inactive) | GI50 [51]: 20.5 µM (inactive) | GI50 [52]: 0.0471 µM (active) | GI50 [53]: 49.4 µM (inactive) | GI50 [54]: > 100 µM (inactive) | GI50 [55]: 77.1 µM (inactive) | GI50 [56]: > 100 µM (inactive)

O=C(O)CCc1nc(-c2ccccc2)c(-c2ccccc2)o1 [OXAPROZIN]
GI50 [1]: > 100 µM (inactive) | GI50 [2]: > 100 µM (inactive) | GI50 [3]: > 100 µM (inactive) | GI50 [4]: > 100 µM (inactive) | GI50 [5]: > 100 µM (inactive) | GI50 [6]: > 100 µM (inactive) | GI50 [7]: > 100 µM (inactive) | GI50 [8]: > 100 µM (inactive) | GI50 [9]: > 100 µM (inactive) | GI50 [10]: > 100 µM (inactive) | GI50 [12]: > 100 µM (inactive) | GI50 [13]: > 100 µM | GI50 [14]: > 100 µM (inactive) | GI50 [15]: > 100 µM (inactive) | GI50 [57]: > 100 µM (inactive) | GI50 [16]: > 100 µM (inactive) | GI50 [17]: > 100 µM (inactive) | GI50 [18]: > 100 µM (inactive) | GI50 [19]: > 100 µM (inactive) | GI50 [20]: > 100 µM (inactive) | GI50 [21]: > 100 µM (inactive) | GI50 [22]: > 100 µM (inactive) | GI50 [23]: > 100 µM (inactive) | GI50 [24]: > 100 µM (inactive) | GI50 [25]: > 100 µM (inactive) | GI50 [26]: > 100 µM (inactive) | GI50 [27]: 84.1 µM (inactive) | GI50 [28]: > 100 µM (inactive) | GI50 [58]: > 100 µM (inactive) | GI50 [29]: > 100 µM (inactive) | GI50 [30]: > 100 µM (inactive) | GI50 [31]: > 100 µM (inactive) | GI50 [32]: > 100 µM (inactive) | GI50 [33]: > 100 µM (inactive) | GI50 [34]: > 100 µM (inactive) | GI50 [35]: > 100 µM (inactive) | GI50 [36]: > 100 µM (inactive) | GI50 [37]: > 100 µM (inactive) | GI50 [38]: 74.8 µM (inactive) | GI50 [39]: > 100 µM (inactive) | GI50 [41]: > 100 µM (inactive) | GI50 [42]: > 100 µM (inactive) | GI50 [43]: > 100 µM (inactive) | GI50 [44]: > 100 µM (inactive) | GI50 [45]: > 100 µM (inactive) | GI50 [46]: > 100 µM (inactive) | GI50 [47]: > 100 µM (inactive) | GI50 [48]: > 100 µM (inactive) | GI50 [59]: > 100 µM (inactive) | GI50 [49]: > 100 µM (inactive) | GI50 [50]: > 100 µM (inactive) | GI50 [51]: 74.5 µM (inactive) | GI50 [52]: > 100 µM (inactive) | GI50 [53]: > 100 µM (inactive) | GI50 [54]: > 100 µM (inactive) | GI50 [55]: > 100 µM (inactive)
